# Source: patent publication US20250127906A1, “SMALL-MOLECULE DEGRADERS OF CDK8 AND CDK19” (University of South Carolina, priority 2021, published 2025)
# pIC50: −log10 of the molar value.
# Key:
# CDK8/19-regulated genes = test: QPCR of CDK8/19-regulated genes in HEK-293 wild-type and CDK8/19 double-knockout cells; assay type: cell-based, human; conditions: for effect on expression of CDK8/19-regulated genes: 200 nM, 3-day treatment
# Method: CDK8/19 act as transcriptional regulators, and therefore we tested the effects of 3-day treatment with 200 nM PROTAC IA7886 along with 200 nM CDK8/19 kinase inhibitor BI-1347 on a series of CDK8/19-regulated genes, using QPCR.
# We have also compared the stability of transcriptional changes induced by a PROTAC and by a kinase inhibitor. In the experiment shown in FIG. 10A, HEK-293 cells were treated with 200 nM of BI-1347 or IA7886 for 3 days, and then the inhibitors were washed off and the restoration of transcriptional changes was monitored 24 hrs and 48 hrs after wash-off.
# RPMI 8226 cells = test: Concentration dependence of RPMI 8226 growth inhibition; assay type: cell-based; conditions: Homo sapiens, 96 h; RPMI 8226, 4-day growth inhibition
# SK-MM-2 cells = test: SK-MM-2 multiple myeloma cell growth over 20 days continuous treatment; assay type: cell-based; conditions: BI1347 200 nM, Senexin C 1 μM, IA7886 200 nM, IA7843 1 μM
# Method: The following CDK8/19 kinase inhibitors were tested for their effects on MM cell lines over 20 days continuous treatment: CDK8/19 kinase inhibitors BI1347 (200 nM) and Senexin C (1 μM), BI1347-derived PROTAC IA7886 (200 nM) and Senexin C-derived PROTAC IA7843 (1 μM). 1-4 million cells were treated with vehicle control (0.1% DMSO), or CDK8/19 kinase inhibitors or PROTACs for 20 days. Every 4 days, cells were counted using BioRAD TC20 Automated Cell Counter with trypan blue staining, and the same number of cells were passaged to a new T25 flask to propagate under the same treatment conditions.
# CDK8 [1] = biological target: T1, CDK8 (Homo sapiens, UniProt P49336); test: CDK8 degradation in other human cell lines (22Rv1, MV4-11, HAP-1, HTB-185, SAOS2, SJSA-1); assay type: cell-based; design: endogenous in cells; conditions: 24-hr treatment
# Excerpt: FIG. 5 illustrates the effects of the novel PROTACs HP8580, IA7843 and IA7886 on CDK8 and CDK19 degradation in other human cell lines, including 22Rv1 prostate cancer (expressing more CDK19 than CDK8), MV4-11 (AML) and HAP-1 (CML) leukemia cell lines, HTB-185 medulloblastoma, and SAOS2 and SJSA-1 osteosarcoma (the latter expressing only CDK19 but not CDK8).
# Target sequence in this assay (P49336 whole entry): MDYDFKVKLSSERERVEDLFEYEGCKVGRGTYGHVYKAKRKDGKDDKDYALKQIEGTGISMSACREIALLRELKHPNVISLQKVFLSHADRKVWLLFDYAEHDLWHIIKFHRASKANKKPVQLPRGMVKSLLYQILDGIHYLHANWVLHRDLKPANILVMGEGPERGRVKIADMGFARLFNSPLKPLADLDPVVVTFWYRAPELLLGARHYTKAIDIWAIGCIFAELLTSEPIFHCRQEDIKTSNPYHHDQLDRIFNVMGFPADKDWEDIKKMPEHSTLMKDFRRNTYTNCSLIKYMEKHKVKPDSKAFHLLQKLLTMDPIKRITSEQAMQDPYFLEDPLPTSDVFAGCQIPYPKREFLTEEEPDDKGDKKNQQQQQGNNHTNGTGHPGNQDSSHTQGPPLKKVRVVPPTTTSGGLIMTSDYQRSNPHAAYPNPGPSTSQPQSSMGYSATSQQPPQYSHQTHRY
# Target sequence in this assay (P24863 whole entry partner): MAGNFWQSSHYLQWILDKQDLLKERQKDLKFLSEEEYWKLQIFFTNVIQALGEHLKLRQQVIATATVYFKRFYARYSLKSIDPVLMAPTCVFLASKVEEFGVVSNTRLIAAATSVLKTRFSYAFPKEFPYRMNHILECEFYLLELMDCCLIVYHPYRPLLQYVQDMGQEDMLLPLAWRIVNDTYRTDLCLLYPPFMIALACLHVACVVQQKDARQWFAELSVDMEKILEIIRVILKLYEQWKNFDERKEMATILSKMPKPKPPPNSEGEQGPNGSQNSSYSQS
# CDK19 = CDK19 (Homo sapiens, UniProt Q9BWU1); test: CDK19 degradation in Loucy T-cell leukemia cells lacking Cyclin C; assay type: cell-based; design: endogenous in cells; host or cells: Loucy; conditions: Loucy cells (lacking CCNC), 24 hr treatment
# Excerpt: (§1) This cell line, however, is unique in lacking Cyclin C (CCNC), the binding partner of CDK8/19. To test if the absence of CDK8-bound CCNC was responsible for the loss of IA7843 CDK8-degrading activity, we have tested the effect of IA7843 on a derivative of HEK-293cells with CRISPR-mediated knockout of CCNC.
# CDK8 [2] = biological target: T1, CDK8; test: CDK8 degradation in HEK-293 cells (Western blot, normalized by GAPDH); assay type: cell-based; design: endogenous in cells; host or cells: HEK-293
# Summary of the method: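 HEK-293 cells were treated for 24 h with or without compound, at 1 μM or 0.3 μM for single-point testing. RIPA lysates were immunoblotted for CDK8, and densitometry gave levels normalized to GAPDH. DC50 is the concentration that reduces CDK8 to half its level in untreated cells.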
# Target sequence in this assay (P49336 whole entry): as the sequence (P49336 whole entry) above
# Target sequence in this assay (P24863 whole entry partner): as the sequence (P24863 whole entry partner) above
# CDK8 [3] = biological target: T1, CDK8; test: CDK8 degradation in HEK-293 cells with CRISPR knockout of CCNC; assay type: cell-based; design: a derivative of HEK-293cells with CRISPR-mediated knockout of CCNC; endogenous in cells; host or cells: HEK-293 with CRISPR knockout of CCNC; conditions: HEK-293 CCNC-knockout cells, 24 hr treatment
# Excerpt: as §1
# Target sequence in this assay (P49336 whole entry): as the sequence (P49336 whole entry) above
# Sequence of CDK19 (Q9BWU1 whole entry): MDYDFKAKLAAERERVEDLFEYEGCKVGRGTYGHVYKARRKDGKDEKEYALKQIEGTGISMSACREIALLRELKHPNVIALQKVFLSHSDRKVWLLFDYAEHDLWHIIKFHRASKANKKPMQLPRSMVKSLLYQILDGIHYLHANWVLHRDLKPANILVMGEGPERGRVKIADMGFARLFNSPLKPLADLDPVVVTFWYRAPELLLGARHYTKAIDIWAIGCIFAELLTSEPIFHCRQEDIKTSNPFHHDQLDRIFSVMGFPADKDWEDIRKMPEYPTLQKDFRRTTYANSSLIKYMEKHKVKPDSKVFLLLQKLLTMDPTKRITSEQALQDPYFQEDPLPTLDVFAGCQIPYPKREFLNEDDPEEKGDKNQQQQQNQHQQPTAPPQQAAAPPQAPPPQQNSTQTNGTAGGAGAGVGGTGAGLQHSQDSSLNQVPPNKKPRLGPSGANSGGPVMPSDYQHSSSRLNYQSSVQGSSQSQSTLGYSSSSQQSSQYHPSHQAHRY
compound,measurement,setting,value
"O=C(CCCNc1cccc2c1C(=O)N(C1CCC(=O)NC1=O)C2=O)NCCCCCCCCCCC(=O)N1CCN(C(=O)Cn2cc(-c3ccc(-c4cncc5ccccc45)cc3)cn2)CC1 (stereo not drawn) [IA7886, 4-[[2-(2,6-dioxo-3-piperidyl)-1,3-dioxo-isoindolin-4-yl]amino]-N-[11-[4-[2-[4-[4-(4-isoquinolyl)phenyl]pyrazol-1-yl]acetyl]piperazin-1-yl]-11-oxo-undecyl]butanamide]",effect on expression of CDK8/19-regulated genes,CDK8/19-regulated genes; CDK8/19 double-knockout (dKO) 293 cells,had no effect in dKO cells
same,stability of transcriptional changes after wash-off,"CDK8/19-regulated genes; HEK-293, 200 nM for 3 days, then 24 hrs and 48 hrs after wash-off",maintained even 48 hrs after wash-off
same,effect on expression of CDK8/19-regulated genes,CDK8/19-regulated genes; wild-type HEK-293 cells,had similar effects on the expression of the tested genes
same,pIC50,RPMI 8226 cells,7.62
same,"growth inhibition over 20 days, order of efficacy",SK-MM-2 cells,BI1347<IA7886<Senexin C<IA7843
same,CDK8 degradation (in words),CDK8 [1],significantly degraded CDK8 and CDK19 in all the tested cell lines
same,CDK19 degradation (in words),CDK19,efficiently degraded CDK8 and CDK19
same,% CDK8 remaining,"CDK8 [2]; HEK-293 cells, 24 hours, tested at 1 μM",19%
same,CDK8 degradation (in words),"CDK8 [2]; HEK-293 cells, Western blot",most potent CDK8 degrader in this set
same,DC50,"CDK8 [2]; HEK-293 cells, concentration degrading CDK8 to half of level in untreated cells",2.8 nM
same,time at which CDK8 degradation reaches maximum,"CDK8 [2]; human 293 cells, 100 nM",about 8 hrs
same,CDK8 degradation (in words),CDK8 [3],efficiently degraded CDK8 and CDK19
